Reference: PMC13170702 (Nuclear medicine and biology, 2025)

How the values were obtained:
[1] = system: 70 other CNS binding sites; settings: at 1 μM; cited from earlier work
Sprague-Dawley rats = assay: GLP 14-day toxicological study; type: in vivo; settings: non-radioactive compound given on two consecutive days

SMILES	binding at 70 other CNS binding sites [1]	adverse effects (Sprague-Dawley rats)
NC(CC(=O)Nc1ccc2c(c1)Cc1cc(F)ccc1-2)C(=O)O (centres unmarked)	no binding	–
COC(=O)[C@@H](N)CC(=O)Nc1ccc2c(c1)Cc1cc(F)ccc1-2 [RP-115]	–	no overt adverse effects
